Experiments:
ERα = molecular target: T1, ERα (Homo sapiens, UniProt P03372); assay: ER affinity assay (ERα), [3H]-E2 displacement; conditions: Relative Binding Affinity, E2 = 100%; recombinant human protein
T1 sequence (P03372 1-595): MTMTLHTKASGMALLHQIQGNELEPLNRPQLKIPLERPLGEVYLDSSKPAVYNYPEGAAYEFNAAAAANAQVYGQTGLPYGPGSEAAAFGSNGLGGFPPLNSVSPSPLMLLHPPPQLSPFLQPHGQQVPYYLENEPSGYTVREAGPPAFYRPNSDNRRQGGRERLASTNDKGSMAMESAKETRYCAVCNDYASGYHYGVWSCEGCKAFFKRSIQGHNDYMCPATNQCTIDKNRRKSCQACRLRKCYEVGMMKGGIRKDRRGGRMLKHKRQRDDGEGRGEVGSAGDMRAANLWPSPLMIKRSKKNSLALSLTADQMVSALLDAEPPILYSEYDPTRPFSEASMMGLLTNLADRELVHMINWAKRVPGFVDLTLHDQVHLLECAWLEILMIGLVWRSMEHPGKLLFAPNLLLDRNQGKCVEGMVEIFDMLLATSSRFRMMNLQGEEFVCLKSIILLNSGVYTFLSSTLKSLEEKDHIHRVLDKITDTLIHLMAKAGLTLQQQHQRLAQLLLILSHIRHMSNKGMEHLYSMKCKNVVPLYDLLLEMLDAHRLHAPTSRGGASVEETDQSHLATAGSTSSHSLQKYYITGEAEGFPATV
Description: (§1) The binding affinity of selected compounds to the ERα and ERβ was determined according to Zimmermann et al. (Zimmermann, J. et al., 3. Steroid Biochem. Mol. Biol., 94:57-66 (2005)) using recombinant human proteins. Briefly, 0.25 μM of ERα or ERβ, respectively, were incubated with [^3H]-E2 (10 nM) and test compound for 1 h at room temperature. The potential inhibitors were dissolved in DMSO (5% final concentration). Evaluation of non-specific-binding was performed with diethylstilbestrol (10 μM). After incubation, ligand-receptor complexes were selectively bound to hydroxyapatite (5 g/60 ml TE-buffer). The formed complex was separated, washed and resuspended in ethanol. For radiodetection, scintillator cocktail (Quickszint 212, Zinsser Analytic, Frankfurt) was added and the samples were measured in a liquid scintillation counter (Rack Beta Primo 1209, Wallac, Turku). […] The compound concentration to displace 50% of the receptor bound [^3H]-E2 were determined. Unlabelled E2 was used as a reference. For determination of the relative binding affinity (RBA) the ratio was calculated according to the following equation: […]
(§2) After the assay was established and validated a modification was made to increase throughput. […] Results were reported as RBA ranges.

17β-HSD2 = molecular target: T2, 17β-HSD2 (Homo sapiens, UniProt P37059); assay: Inhibition of 17β-HSD2 in cell-free assay; format: biochemical; set-up: 17β-HSD2 was obtained directly from the microsomal fraction; from tissue; host or cells: human placenta, microsomal fraction; conditions: human placenta, microsomal fraction, substrate E2 500 nM, cofactor NAD+ 1500 μM; for inhibition at 1 µM / % inhibition 17β-HSD2: inhibitor concentration 1 μM
T2 sequence (P37059 1-387): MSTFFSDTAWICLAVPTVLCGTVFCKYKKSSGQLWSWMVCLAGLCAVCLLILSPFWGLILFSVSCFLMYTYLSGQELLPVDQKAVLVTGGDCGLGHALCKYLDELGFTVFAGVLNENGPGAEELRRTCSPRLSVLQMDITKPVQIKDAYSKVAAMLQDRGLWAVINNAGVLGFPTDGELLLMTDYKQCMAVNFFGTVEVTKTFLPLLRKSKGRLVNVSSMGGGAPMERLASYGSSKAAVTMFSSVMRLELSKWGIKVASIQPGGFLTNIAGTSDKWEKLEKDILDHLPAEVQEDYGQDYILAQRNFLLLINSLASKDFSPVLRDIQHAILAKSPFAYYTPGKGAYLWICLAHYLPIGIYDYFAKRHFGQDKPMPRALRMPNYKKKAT
Description: (§3) Fresh human placenta was homogenized. Cytosolic and microsomal fractions were separated by centrifugation at 1000 g, 10000 g and 150000 g. 17β-HSD2 was obtained directly from the microsomal fraction. For the partial purification of 17β-HSD1, the cytosolic fraction was precipitated with ammonium sulfate. Aliquots containing 17β-HSD1 or 17β-HSD2 were stored frozen.
Inhibitor stock solutions were prepared in DMSO. Final concentration of DMSO was adjusted to 1% in all samples. The enzymatic reaction was started by addition of a mixture of unlabelled- and [^3H]-E2 (final concentration: 500 nM, 0.11 μCi). After 20 min at 37° C., the incubation was stopped with HgCl2 and the mixture was extracted with ether. After evaporation, the steroids were dissolved in acetonitrile. E1 and E2 were separated using acetonitrile/water (45:55) as mobile phase in a C18 RP chromatography column (Nucleodur C18, 3 μm, Macherey-Nagel, Duren) connected to a HPLC-system (Agilent 1100 Series, Agilent Technologies, Waldbronn). Detection and quantification of the steroids were performed using a radioflow detector (Berthold Technologies, Bad Wildbad). The conversion rate was calculated according to the following equation: […]

ERβ = ERβ (Homo sapiens, UniProt Q92731); assay: ER affinity assay (ERβ), [3H]-E2 displacement; conditions: Relative Binding Affinity, E2 = 100%; recombinant human protein
Chain of ERβ (Q92731 whole entry): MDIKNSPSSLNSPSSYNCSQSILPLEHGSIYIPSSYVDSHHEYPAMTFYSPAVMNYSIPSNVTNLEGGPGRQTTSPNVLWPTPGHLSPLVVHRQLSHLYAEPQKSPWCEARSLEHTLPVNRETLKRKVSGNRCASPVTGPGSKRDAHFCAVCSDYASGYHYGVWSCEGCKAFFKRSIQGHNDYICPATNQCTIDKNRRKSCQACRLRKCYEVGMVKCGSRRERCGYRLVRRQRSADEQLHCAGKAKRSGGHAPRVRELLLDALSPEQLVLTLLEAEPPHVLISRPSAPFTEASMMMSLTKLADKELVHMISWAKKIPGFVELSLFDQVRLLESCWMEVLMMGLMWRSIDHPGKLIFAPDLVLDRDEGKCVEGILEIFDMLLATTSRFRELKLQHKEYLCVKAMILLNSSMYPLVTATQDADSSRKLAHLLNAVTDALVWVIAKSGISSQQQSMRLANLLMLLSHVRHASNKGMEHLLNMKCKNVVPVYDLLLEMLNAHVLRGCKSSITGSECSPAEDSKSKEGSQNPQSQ
Description: as §1, §2

17β-HSD1 = molecular target: T3, 17β-HSD1 (Homo sapiens, UniProt P14061); assay: Inhibition of 17β-HSD1 in cell-free assay; format: biochemical; conditions: human placenta, cytosolic fraction, substrate E1 500 nM, cofactor NADH 500 μM; for % inhibition 17β-HSD1 / inhibition at 1 µM: inhibitor concentration 1 μM
T3 construct: For the partial purification of 17β-HSD1, the cytosolic fraction was precipitated with ammonium sulfate; from tissue; host or cells: human placenta, cytosolic fraction
T3 sequence (P14061 1-328): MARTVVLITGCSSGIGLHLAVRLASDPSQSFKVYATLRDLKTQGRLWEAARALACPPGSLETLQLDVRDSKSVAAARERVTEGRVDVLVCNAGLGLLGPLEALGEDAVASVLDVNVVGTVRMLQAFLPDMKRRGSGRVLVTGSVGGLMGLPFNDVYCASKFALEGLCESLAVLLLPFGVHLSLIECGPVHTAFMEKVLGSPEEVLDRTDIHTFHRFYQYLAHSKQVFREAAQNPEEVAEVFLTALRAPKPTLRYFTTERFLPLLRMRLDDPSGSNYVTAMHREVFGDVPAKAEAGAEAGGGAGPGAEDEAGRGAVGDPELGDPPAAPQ
Description: as §3
The 17β-HSD1 inhibition assay was performed similarly to the 17β-HSD2 test. The cytosolic fraction was incubated with NADH [500 μM], test compound and a mixture of unlabelled- and [^3H]-E1 (final concentration: 500 nM, 0.15 μCi) for 10 min at 37° C. Further treatment of the samples and HPLC separation was carried out as mentioned above for 17β-HSD2.

| ERα RBA (%) (ERα) | IC50 (17β-HSD2) | ERβ RBA (%) (ERβ) | IC50 (17β-HSD1) | inhibition at 1 µM (17β-HSD2) | % inhibition 17β-HSD1 (17β-HSD1) | % inhibition 17β-HSD2 (17β-HSD2) | inhibition at 1 µM (17β-HSD1) | SMILES |
| --- | --- | --- | --- | --- | --- | --- | --- | --- |
| <0.1% | 61 nM | <0.1% | 4450 nM |  |  |  |  | COc1cccc(-c2ccc(C(=O)N(C)Cc3cccc(O)c3)s2)c1F [compound 43, 5-(2-Fluoro-3-methoxyphenyl)-N-(3-hydroxybenzyl)-N-methylthiophene-2-carboxamide] |
| <0.1% | 721 nM | <0.1% | 12300 nM |  |  |  |  | COc1cccc(-c2ccc(C(=O)N(C)c3cccc(C(F)(F)F)c3)s2)c1 [compound 75, 5-(3-Methoxyphenyl)-N-methyl-N-(3-(trifluoromethyl)phenyl)thiophene-2-carboxamide] |
|  |  |  |  | 48% | n.i.^e |  |  | COc1cccc(CN(C)C(=O)c2ccc(-c3ccccc3OC)s2)c1 [compound 27, N-(3-Methoxybenzyl)-5-(2-methoxyphenyl)-N-methylthiophene-2-carboxamide] |
|  |  |  |  |  | n.i.^e | n.i.^e |  | COc1cccc(CN(C)C(=O)c2ccc(-c3ccc(C#N)cc3)s2)c1 [compound 31, 5-(4-Cyanophenyl)-N-(3-methoxybenzyl)-N-methylthiophene-2-carboxamide] |
|  | 137 nM |  | 1110 nM |  |  |  |  | COc1cccc(-c2ccc(C(=O)N(C)c3cccc(-c4ccccc4)c3)s2)c1 [compound 76, N-(Biphenyl-3-yl)-5-(3-methoxyphenyl)-N-methylthiophene-2-carboxamide] |
| <0.1% | 644 nM | <0.1% | 6800 nM |  |  |  |  | Cc1cccc(N(C)C(=O)c2ccc(-c3cccc(O)c3)s2)c1 [compound 71, 5-(3-Hydroxyphenyl)-N-methyl-N-m-tolylthiophene-2-carboxamide] |
| <0.1% | 246 nM | <0.1% | 18600 nM |  |  |  |  | CN(Cc1cccc(O)c1)C(=O)c1ccc(-c2cccc(N(C)C)c2)s1 [compound 40, 5-(3-(Dimethylamino)phenyl)-N-(3-hydroxybenzyl)-N-methylthiophene-2-carboxamide] |
|  | 326 nM |  | 3150 nM |  |  |  |  | CN(Cc1cccc(O)c1)C(=O)c1ccc(-c2cccc(F)c2)s1 [compound 41, 5-(3-Fluorophenyl)-N-(3-hydroxybenzyl)-N-methylthiophene-2-carboxamide] |
| <0.1% | 335 nM | <0.1% | 5100 nM |  |  |  |  | CN(Cc1cccc(O)c1)C(=O)c1ccc(-c2ccc(O)cc2)s1 [compound 26, N-(3-Hydroxybenzyl)-5-(4-hydroxyphenyl)-N-methylthiophene-2-carboxamide] |

Continued, compound first:

| SMILES | ERα RBA (%) (ERα) | IC50 (17β-HSD2) | ERβ RBA (%) (ERβ) | IC50 (17β-HSD1) | inhibition at 1 µM (17β-HSD2) | % inhibition 17β-HSD1 (17β-HSD1) | % inhibition 17β-HSD2 (17β-HSD2) | inhibition at 1 µM (17β-HSD1) |
| --- | --- | --- | --- | --- | --- | --- | --- | --- |
| CN(Cc1cccc(O)c1)C(=O)c1ccc(-c2cccc(O)c2)s1 [compound 24, N-(3-Hydroxybenzyl)-5-(3-hydroxyphenyl)-N-methylthiophene-2-carboxamide] | <0.1% | 394 nM | <0.1% | > 5450 nM |  |  |  |  |
| COc1cccc(CN(C)C(=O)c2ccc(-c3cccc(C)c3)cc2)c1 [compound 3, N-(3-Methoxybenzyl)-N,3′-dimethylbiphenyl-4-carboxamide] | <0.1% | 265 nM | <0.1% | > 100000 nM |  |  |  |  |
| COc1cccc(-c2cccc(C(=O)N(C)c3cccc(OC)c3)c2)c1 [compound 11, 3′-Methoxy-N-(3-methoxyphenyl)-N-methylbiphenyl-3-carboxamide] | <0.1% | 517 nM | <0.1% | > 60000 nM |  |  |  |  |
| COc1cccc(CCN(C)C(=O)c2ccc(-c3cccc(OC)c3)s2)c1 [compound 17, N-(3-Methoxyphenethyl)-5-(3-methoxyphenyl)-N-methylthiophene-2-carboxamide] |  |  |  |  | 31% | n.i.^e |  |  |
| COc1ccc(-c2cccc(C(=O)N(C)Cc3cccc(OC)c3)c2)cc1 [compound 5, 4′-Methoxy-N-(3-methoxybenzyl)-N-methylbiphenyl-3-carboxamide] |  |  |  |  | 11% | n.i.^e |  |  |
| CN(CCc1cccc(O)c1)C(=O)c1ccc(-c2cccc(F)c2)s1 [compound 22, 5-(3-Fluorophenyl)-N-(3-hydroxyphenethyl)-N-methylthiophene-2-carboxamide] |  |  |  |  | 17% |  |  | 12% |
| COc1cccc(CCN(C)C(=O)c2ccc(-c3cccc(F)c3)s2)c1 [compound 21, 5-(3-Fluorophenyl)-N-(3-methoxyphenethyl)-N-methylthiophene-2-carboxamide] |  |  |  |  |  | n.i.^e | n.i.^e |  |
| COc1cccc(CCN(C)C(=O)c2ccc(-c3ccccc3)s2)c1 [compound 19, N-(3-Methoxyphenethyl)-N-methyl-5-phenylthiophene-2-carboxamide] |  |  |  |  | 18% |  |  | 11% |
| COc1cccc(CN(C)C(=O)c2ccc(-c3cccc(OC)c3)s2)c1 [compound 23, N-(3-Methoxybenzyl)-5-(3-methoxyphenyl)-N-methylthiophene-2-carboxamide] | <0.1% | 370 nM | <0.1% | > 100000 nM |  |  |  |  |
| CN(Cc1cccc(O)c1)C(=O)c1cccc(-c2cccc(O)c2)c1 [compound 8, 3′-Hydroxy-N-(3-hydroxybenzyl)-N-methylbiphenyl-3-carboxamide] |  | 481 nM |  | 3800 nM |  |  |  |  |
| CN(CCc1cccc(O)c1)C(=O)c1ccc(-c2ccccc2)s1 [compound 20, N-(3-Hydroxyphenethyl)-N-methyl-5-phenylthiophene-2-carboxamide] |  |  |  |  | 11% | n.i.^e |  |  |
